# Like-named read-outs stand apart in the source and are kept apart here.
# Experiments:
# [1] = biological target: ACLY enzyme, from S100 fraction of rat livers (Rattus norvegicus (Rat), UniProt P16638); assay: rACLY S100 14C-Citrate incorporation assay (IC50 Fatty Acid synthesis); assay type: biochemical; conditions: rat liver S100 fraction; fatty acid labeling from 14C-citrate; read-out: rACLY S100 14C-Citrate FA IC50
# Excerpt: Example 336. rACLY S100 ^14C-Citrate Incorporation Assay (IC50 Fatty Acid Synthesis)
# Cell-free preparations of liver can synthesize long-chain fatty acids through a pathway which includes the formation of malonyl co-enzyme A (CoA) from acetyl CoA and CO2. The ACLY enzyme, from S100 fraction of rat livers, can transfer CoA, ATP and Citrate to acetyl-CoA, which is the precursor of fatty acid synthesis. Addition of ^14C-citrate to the S100 fraction enables fatty acid labeling from the ACLY reaction, and thus, the effect of ACLY inhibition can be measured in these preparations.
# S100 fractions from rat livers were prepared in order to study the effect of ACLY inhibition on fatty acid synthesis using ^14C-citrate as the radiolabel. Fresh livers were excised and quickly homogenized using a 15 ml dounce homogenizer (D9188-1SET from Sigma) in 1 volume of assay buffer containing 0.25 M sucrose, 1 mM potassium citrate, and protease inhibitor cocktail. Homogenates were centrifuged at 20,000×g for 20 min at 4° C. The supernatant was centrifuged at 100,000×g for 2 hours at 4° C. This fraction is S100. For compound addition, 17.5 μL of compound at the desired concentration was added to 350 μL of S100 fraction solution (derived from 0.5 g fresh liver) in 15 mL centrifuge tubes and exposed to air at 37° C. for 30 min. Radiolabeled [^14C]-citrate (60 μL, 3 μCi) was added per tube, plus 40 μL reaction buffer and 3032.5 μL substrate buffer (diluted with reaction buffer, final conc.: 1 mM ATP, 60 μM CoA, 100 μM non-radiolabeled citrate, 0.5% DMSO). Total reaction volume equaled 3.5 mL and was mixed at 37° C. for 2 hours. At the end of the reaction, each sample was saponified at 70° C. for 120 minutes in 1.5 mL of 2.5M NaOH, then cooled to room temperature. Ethanol (2.5 mL) was added to the tubes, and the solution was mixed and allowed to stand overnight. […] Next, samples were acidified in 15 mL tubes directly with 0.6 mL concentrated HCl, to ensure pH<1. Fatty acids were extracted by adding 5 mL of petroleum ether per tube, the tubes were shaken vigorously, then centrifuged at 1000 rpm for 5 min. […]
# ACL [2] = biological target: T1, ACL (Homo sapiens (Human), UniProt P53396); assay: ADP-Glo Assay
# Target sequence in this assay (P53396 other isoform, or with tags, fused parts or gaps isoform P53396-2): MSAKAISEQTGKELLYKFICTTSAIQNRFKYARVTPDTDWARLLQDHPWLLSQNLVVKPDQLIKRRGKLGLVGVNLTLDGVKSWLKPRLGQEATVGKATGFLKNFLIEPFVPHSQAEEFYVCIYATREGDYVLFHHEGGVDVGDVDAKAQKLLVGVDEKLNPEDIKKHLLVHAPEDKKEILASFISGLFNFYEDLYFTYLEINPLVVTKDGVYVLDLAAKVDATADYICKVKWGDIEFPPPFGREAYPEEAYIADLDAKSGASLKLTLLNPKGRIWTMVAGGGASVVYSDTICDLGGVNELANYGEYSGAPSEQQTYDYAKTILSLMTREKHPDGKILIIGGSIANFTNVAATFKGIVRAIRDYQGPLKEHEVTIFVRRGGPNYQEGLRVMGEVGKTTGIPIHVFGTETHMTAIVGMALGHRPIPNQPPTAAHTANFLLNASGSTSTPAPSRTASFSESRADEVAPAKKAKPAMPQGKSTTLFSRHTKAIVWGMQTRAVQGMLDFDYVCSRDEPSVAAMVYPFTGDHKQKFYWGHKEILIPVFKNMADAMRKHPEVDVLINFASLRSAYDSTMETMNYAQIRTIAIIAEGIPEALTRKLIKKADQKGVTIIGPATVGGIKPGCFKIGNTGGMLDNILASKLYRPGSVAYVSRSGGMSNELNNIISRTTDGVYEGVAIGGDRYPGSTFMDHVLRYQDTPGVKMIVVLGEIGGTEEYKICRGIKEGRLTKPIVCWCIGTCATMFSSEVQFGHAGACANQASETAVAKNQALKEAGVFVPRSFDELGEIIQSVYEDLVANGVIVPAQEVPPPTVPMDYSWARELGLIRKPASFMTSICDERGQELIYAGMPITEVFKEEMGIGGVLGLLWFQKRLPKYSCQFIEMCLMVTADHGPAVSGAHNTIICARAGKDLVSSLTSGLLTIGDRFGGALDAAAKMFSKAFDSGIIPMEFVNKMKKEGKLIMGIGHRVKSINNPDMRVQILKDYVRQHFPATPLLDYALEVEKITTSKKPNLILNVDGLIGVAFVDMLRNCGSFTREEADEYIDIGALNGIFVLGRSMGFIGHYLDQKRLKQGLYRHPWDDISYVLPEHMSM
# Procedure: Compounds of the present invention were evaluated in an ADP-GLO assay as follows:
# b) Add 0.1 μL diluted cpd solution to assay plate, each dose with 2 replicates c) Centrifuge 1000 RPM for 1 min d) Add 5 μL ACL working solution to 384-well assay plate, centrifuge 1000 RPM for 1 min e) Incubate at 25° C. for 15 min f) Add 5 μL substrate working solution to initiate reaction
# h) Reference final conc: 30 uM starting Conc, 3× dilution, 11+0 points. Test cpd conc: 30/100 uM starting Conc, 3× dilution, 11+0 points. i) Incubate at 25° C. for 60 min j) Add 10 μL ADP Glo reagent, centrifuge 1000 RPM for 1 min k) Incubate at 25° C. for 40 min l) Add 20 μL kinase detection reagent, centrifuge 1000 RPM for 1 min m) Incubate at 25° C. for 40 min n) Read on Envision for US LUM as RLU
# ACL [3] = biological target: T1, ACL; assay: ACLY-MDH Coupled Assay
# Target sequence in this assay (P53396 whole entry, species assumed): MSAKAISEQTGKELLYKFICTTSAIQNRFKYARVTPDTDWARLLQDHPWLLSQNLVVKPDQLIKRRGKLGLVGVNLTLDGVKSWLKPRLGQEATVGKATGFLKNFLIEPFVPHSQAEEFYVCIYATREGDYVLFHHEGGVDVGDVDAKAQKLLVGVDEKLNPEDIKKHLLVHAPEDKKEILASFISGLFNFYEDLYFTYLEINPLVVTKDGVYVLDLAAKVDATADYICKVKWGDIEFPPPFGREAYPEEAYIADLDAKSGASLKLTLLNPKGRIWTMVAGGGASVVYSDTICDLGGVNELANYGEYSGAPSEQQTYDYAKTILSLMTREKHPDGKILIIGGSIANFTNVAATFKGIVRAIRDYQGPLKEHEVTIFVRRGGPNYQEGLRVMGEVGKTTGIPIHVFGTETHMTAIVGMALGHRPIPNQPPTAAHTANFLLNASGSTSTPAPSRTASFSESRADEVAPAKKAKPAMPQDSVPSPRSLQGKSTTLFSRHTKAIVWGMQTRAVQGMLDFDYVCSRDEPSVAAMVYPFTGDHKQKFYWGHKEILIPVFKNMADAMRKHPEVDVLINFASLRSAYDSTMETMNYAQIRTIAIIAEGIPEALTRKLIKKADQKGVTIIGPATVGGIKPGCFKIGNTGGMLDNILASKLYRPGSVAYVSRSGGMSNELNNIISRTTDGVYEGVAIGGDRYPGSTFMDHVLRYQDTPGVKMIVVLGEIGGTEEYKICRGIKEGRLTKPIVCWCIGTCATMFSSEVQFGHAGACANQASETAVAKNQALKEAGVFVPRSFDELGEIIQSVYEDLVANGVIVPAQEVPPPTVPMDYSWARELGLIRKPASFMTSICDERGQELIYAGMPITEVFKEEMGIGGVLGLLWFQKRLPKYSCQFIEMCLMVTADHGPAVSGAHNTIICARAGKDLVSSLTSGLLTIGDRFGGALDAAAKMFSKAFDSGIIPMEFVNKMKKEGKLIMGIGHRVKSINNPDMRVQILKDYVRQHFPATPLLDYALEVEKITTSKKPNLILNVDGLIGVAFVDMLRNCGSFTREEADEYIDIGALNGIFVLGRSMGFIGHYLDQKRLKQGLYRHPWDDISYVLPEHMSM
# Procedure: Compounds of the present invention were evaluated in an ACLY Coupled Assay.
# The assay protocol for the Coupled Assay (below) was followed:
# b) Add 1 μL cpds to 96 assay plate, Test cpd conc: 100/30/10 μM top dose, 3 folds dilution, 10+0+control (control: buffer without ACL+DMSO) points, 1000 rpm for 1 min, incubation at 25° C. for 60 min
# HepG2 cells [4] = conditions: Homo sapiens, HepG2, read-out: ACLY HepG2 14C-Pyruvate Assay serum free IC50 FA (IC50) [μM]
# Procedure: ACLY HepG2 ^14C-Pyruvate Incorporation Serum-Free Assay (IC50 Fatty
# The protocol of the assay (below) was followed:
# (§2) After 48 hours, change medium with fresh growth medium.
# (§3) After 18 hours, replaced medium using 0.5 mL fresh medium (5.5 mM Glucose, without FBS, 1% PS, without Pyruvate) containing Compounds or 0.5% DMSO, incubated at 37° C., 5% CO2 for 1 hour.
# (§4) Add 3 μci of [14C]-pyruvate per well to the cell samples were incubated at 37° C., 5% CO2 for 5 hours.
# Medium was removed and placed into a 15 mL centrifuge tube. Add 0.5 mL of 0.1M NaOH to each well and then transfer the cell lysates into the corresponding 15 mL centrifuge tubes. 1.0 mL of EtOH and 0.17 mL 50% KOH were added to 15 mL tubes containing medium and cell suspensions, then shaking tube gently. […] Saponification 15 mL tubes containing medium and cell suspensions were incubated at 90° C. for 1 hour, then cooled to room temperature. […] Cholesterol Extraction 5 mL of petroleum ether was added per tube to extract Cholesterol, shaken vigorously, centrifuged at 1000 rpm for 5 min, and ˜5 mL of the petroleum ether layer was transferred to a new glass tube (18*180 mm). […] Acidification The samples in 15 mL tube were acidified directly with 1 mL concentrated HCl, make sure pH was below 1. […] Fatty Acids Extraction 5 mL of petroleum ether was added per tube, shaken vigorously, centrifuged at 1000 rpm for 5 min, 5 mL of the petroleum ether layer was transferred to the corresponding glass tube. […] Repeat the Step 8 10. Count The petroleum ether extracts were pooled and evaporated to dryness overnight. The residue from the petroleum ether fractions were resuspended in 500 μL of chloroform-hexane (1:1) containing 420 μg of linoleic acid as a carrier. Add 200 μL of resuspending (chloroform-hexane (1:1) containing 168 μg of linoleic acid) to 2 mL Ultima Gold™, after 30 min, count on a scintillation counter.
# HepG2 cells [5] = conditions: Homo sapiens, HepG2, read-out: ACLY HepG2 14C-Pyruvate Assay serum free IC50 Cholesterol (IC50) [μM]
# Procedure: ACLY HepG2 ^14C-Pyruvate Incorporation Serum-Free Assay (IC50 Cholesterol and Fatty Acid Synthesis)
# Compounds of the present invention were evaluated in a HepG2 ^14C-pyruvate incorporation assay. The protocol below was followed:
# as §2, §3, §4
# Medium was removed and placed into a 15 mL centrifuge tube. Add 0.5 mL of 0.1M NaOH to each well and then transfer the cell lysates into the corresponding 15 mL centrifuge tubes. 1.0 mL of EtOH and 0.17 mL 50% KOH were added to 15 mL tubes containing medium and cell suspensions, then shaking tube gently. […] Saponification 15 mL tubes containing medium and cell suspensions were incubated at 90° C. for 1 hour, then cooled to room temperature. […] Cholesterol Extraction 5 mL of petroleum ether was added per tube to extract Cholesterol, shaken vigorously, centrifuged at 1000 rpm for 5 min, and ˜5 mL of the petroleum ether layer was transferred to a new glass tube (18*180 mm). […] Acidification The samples in 15 mL tube were acidified directly with 1 mL concentrated HCl, make sure pH was below 1. […] Fatty Acids Extraction 5 mL of petroleum ether was added per tube, shaken vigorously, centrifuged at 1000 rpm for 5 min, 5 mL of the petroleum ether layer was transferred to the corresponding glass tube. […] Count The petroleum ether extracts were pooled and evaporated to dryness overnight. The residue from the petroleum ether fractions were resuspended in 500 μL of chloroform-hexane (1:1) containing 420 μg of linoleic acid as a carrier. Add 200 μL of resuspending (chloroform-hexane (1:1) containing 168 μg of linoleic acid) to 2 mL Ultima Gold™, after 30 min, count on a scintillation counter.
# HepG2 cells [6] = assay: ACLY HepG2 14C-Pyruvate incorporation assay with serum (IC50 Cholesterol); assay type: cell-based; conditions: Homo sapiens, table title: with serum, column head: serum free, 96 well
# Excerpt: The protocol below was followed:
# (§1) 5. […] 6. […] 7. […] 8. […] 9. Repeat the Step 8 10.
# HepG2 cells [7] = assay: ACLY HepG2 14C-Pyruvate incorporation assay with serum (IC50 Fatty Acid); assay type: cell-based; conditions: Homo sapiens, table title: with serum, column head: serum free, 96 well, read-out: ACLY HepG2 14C-Pyruvate Assay serum free IC50 FA 96 well (IC50)
# Excerpt: Example 333. ACLY HepG2 ^14C-Pyruvate Incorporation Assay (IC50 Fatty Acid)
# as §1
# ACC1 = ACC1 isolated from rat, mouse, monkey and human; cited from earlier work
# ACC2 = ACC2 isolated from rat, mouse, monkey and human; cited from earlier work
# pyruvate carboxylase = pyruvate carboxylase (Homo sapiens (Human), UniProt P11498); conditions: cited from earlier work
# pyruvate carboxylase, sequence (P11498 21-1178): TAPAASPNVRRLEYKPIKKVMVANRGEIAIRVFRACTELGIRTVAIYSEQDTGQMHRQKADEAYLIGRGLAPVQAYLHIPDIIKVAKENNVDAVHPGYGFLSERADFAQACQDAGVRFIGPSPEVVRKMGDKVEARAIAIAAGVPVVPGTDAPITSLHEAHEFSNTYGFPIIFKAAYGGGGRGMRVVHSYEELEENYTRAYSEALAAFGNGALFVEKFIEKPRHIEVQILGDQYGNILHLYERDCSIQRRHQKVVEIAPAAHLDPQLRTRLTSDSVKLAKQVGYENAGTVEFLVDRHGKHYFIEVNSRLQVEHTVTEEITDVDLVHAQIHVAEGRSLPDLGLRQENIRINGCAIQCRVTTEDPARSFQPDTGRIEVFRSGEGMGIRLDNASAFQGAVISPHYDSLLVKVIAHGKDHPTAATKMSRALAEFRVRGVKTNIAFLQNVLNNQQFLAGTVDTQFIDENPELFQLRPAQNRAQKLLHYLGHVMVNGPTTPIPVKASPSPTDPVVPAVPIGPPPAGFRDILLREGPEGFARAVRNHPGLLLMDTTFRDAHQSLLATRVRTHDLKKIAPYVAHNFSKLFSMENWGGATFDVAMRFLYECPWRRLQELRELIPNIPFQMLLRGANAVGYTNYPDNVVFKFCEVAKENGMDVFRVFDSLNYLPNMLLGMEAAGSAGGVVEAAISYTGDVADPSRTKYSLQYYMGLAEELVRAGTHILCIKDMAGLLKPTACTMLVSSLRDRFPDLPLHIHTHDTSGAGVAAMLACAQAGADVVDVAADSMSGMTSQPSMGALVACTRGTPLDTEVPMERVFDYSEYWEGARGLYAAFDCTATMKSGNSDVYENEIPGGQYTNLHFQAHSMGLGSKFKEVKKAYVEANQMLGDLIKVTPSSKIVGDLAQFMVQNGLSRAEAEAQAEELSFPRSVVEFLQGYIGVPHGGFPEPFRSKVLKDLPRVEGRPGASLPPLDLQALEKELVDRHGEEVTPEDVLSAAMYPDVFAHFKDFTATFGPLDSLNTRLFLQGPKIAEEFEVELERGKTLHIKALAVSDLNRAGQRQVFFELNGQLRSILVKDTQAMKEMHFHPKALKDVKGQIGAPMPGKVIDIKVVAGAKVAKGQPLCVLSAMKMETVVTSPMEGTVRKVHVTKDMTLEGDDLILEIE
# [8] = biological target: propionyl-CoA carboxylase (Homo sapiens (Human), UniProt P05165+P05166); conditions: cited from earlier work
# [9] = read-out: ACL-ADP-Glo (IC50), 3 nM ACL, 15 μM ATP, 3 μM CoA, 300 μM Citrate
# [10] = read-out: ACL-MDH Coupled Assay (IC50), 8 nM ACL, 60 μM CoA Na2, 85 μM Citrate, 250 μM ATP, 250 μM NADH
# ACLY enzyme, from S100 fraction of rat livers, sequence (P16638 whole entry): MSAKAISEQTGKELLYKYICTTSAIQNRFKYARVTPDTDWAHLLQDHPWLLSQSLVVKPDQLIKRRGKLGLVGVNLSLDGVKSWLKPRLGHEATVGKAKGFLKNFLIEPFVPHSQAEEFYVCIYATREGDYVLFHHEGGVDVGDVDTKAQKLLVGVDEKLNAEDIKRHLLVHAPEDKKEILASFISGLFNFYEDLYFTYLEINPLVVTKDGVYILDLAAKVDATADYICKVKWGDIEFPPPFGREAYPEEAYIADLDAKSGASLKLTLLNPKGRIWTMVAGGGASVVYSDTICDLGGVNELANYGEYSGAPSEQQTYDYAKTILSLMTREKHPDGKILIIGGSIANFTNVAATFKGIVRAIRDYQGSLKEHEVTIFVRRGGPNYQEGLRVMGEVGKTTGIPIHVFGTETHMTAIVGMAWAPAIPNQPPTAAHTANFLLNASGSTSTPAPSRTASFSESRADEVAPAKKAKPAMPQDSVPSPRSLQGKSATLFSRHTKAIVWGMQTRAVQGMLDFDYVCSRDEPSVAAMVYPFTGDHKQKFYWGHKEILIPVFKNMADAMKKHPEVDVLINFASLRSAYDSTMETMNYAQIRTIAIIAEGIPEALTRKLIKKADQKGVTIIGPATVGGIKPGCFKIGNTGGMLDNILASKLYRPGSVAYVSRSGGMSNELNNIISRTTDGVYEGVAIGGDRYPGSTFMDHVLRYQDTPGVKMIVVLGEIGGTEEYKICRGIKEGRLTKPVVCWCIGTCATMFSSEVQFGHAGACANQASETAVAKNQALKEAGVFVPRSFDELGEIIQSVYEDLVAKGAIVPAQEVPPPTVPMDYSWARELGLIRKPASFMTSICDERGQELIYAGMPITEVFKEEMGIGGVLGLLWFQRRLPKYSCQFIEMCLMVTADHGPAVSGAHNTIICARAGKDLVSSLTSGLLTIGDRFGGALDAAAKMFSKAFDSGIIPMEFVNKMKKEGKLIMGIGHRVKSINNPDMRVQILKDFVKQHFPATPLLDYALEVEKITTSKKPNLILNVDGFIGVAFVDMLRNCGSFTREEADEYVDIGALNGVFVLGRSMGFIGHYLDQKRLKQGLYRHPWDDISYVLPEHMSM
smiles,measurement,setting,value
"O=C(Nc1cc(-c2ccccc2)c(F)cc1C(=O)O)c1cc(Cl)cc(Cl)c1 [I-318, 5-(3,5-dichlorobenzamido)-2-fluoro-[1,1′-biphenyl]-4-carboxylic Acid]",IC50,[1],5000 to 20000 nM
same,IC50,ACL [2],500 to 20000 nM
same,IC50,ACL [3],500 to 30000 nM
same,IC50,HepG2 cells [4],1 to 10 µM
same,IC50,HepG2 cells [5],1 to 5 µM
"O=S(=O)(Nc1cc(-c2ccccc2)ccc1F)c1cc(Cl)cc(Cl)c1O [I-22, 3,5-dichloro-N-(2-fluoro-5-phenylphenyl)-2-hydroxybenzene-1-sulfonamide]",IC50,HepG2 cells [6],< 1000 nM
same,IC50,HepG2 cells [7],1000 to 5000 nM
same,IC50,[1],1000 to 5000 nM
same,IC50,ACL [2],50 to 500 nM
same,IC50,ACL [3],< 50 nM
same,IC50,HepG2 cells [4],1 to 10 µM
same,IC50,HepG2 cells [5],< 1 µM
O=C(c1c2ccccc2cc2ccccc12)N1CCC(N2CCC[C@@H](C(=O)N3CCOCC3)C2)CC1 [CP-640186],IC50,ACC1,~60 nM
same,IC50,ACC2,~60 nM
same,inhibition of pyruvate carboxylase,pyruvate carboxylase,without inhibiting
same,inhibition of propionyl-CoA carboxylase,[8],without inhibiting
"Cc1cc(Cl)c(O)c(S(=O)(=O)Nc2cc(-c3ccccc3)c(F)cc2F)c1 [I-157, 3-chloro-N-(4,6-difluoro-[1,1′-biphenyl]-3-yl)-2-hydroxy-5-methylbenzenesulfonamide]",IC50,HepG2 cells [6],1000 to 5000 nM
same,IC50,HepG2 cells [7],5000 to 20000 nM
same,IC50,ACL [2],50 to 500 nM
same,IC50,ACL [3],50 to 500 nM
same,IC50,HepG2 cells [4],1 to 10 µM
same,IC50,HepG2 cells [5],1 to 5 µM
"CCOC(=O)c1cc(Cl)c(O)c(S(=O)(=O)Nc2cc(-c3ccccc3)c(F)cc2F)c1 [I-84, ethyl 3-chloro-5-[(2,4-difluoro-5-phenylphenyl)sulfamoyl]-4-hydroxybenzoate]",IC50,HepG2 cells [6],< 1000 nM
same,IC50,HepG2 cells [7],1000 to 5000 nM
same,IC50,ACL [2]; [9],< 50 nM
same,IC50,ACL [3]; [10],< 50 nM
same,IC50,HepG2 cells [4],1 to 10 µM
same,IC50,HepG2 cells [5],< 1 µM
COc1cc(F)c(-c2cc3ccccc3s2)cc1NS(=O)(=O)c1cc(C(=O)N2CCC2)cc(Cl)c1O [I-286],IC50,[1],1000 to 5000 nM
same,IC50,ACL [2]; [9],< 50 nM
same,IC50,ACL [3]; [10],< 50 nM
same,IC50,HepG2 cells [4],1 to 10 µM
same,IC50,HepG2 cells [5],1 to 5 µM

# From patent US11555012B2 (Nimbus Artemis, Inc., priority 2018, dated 2023)
